Results from US5284774A (priority 1991, dated 1994).
Where “and” joins values, the source holds several entries; their conditions need not be identical. Equal values may be shown once. Entries after “also recorded” stand apart in the source; their conditions may differ. Read-outs that look alike come from different tables or passages of the source.

Key:
[1] = molecular target: T1, System L (Mus musculus, UniProt Q9Z127); assay type: cell-based, murine
T1 construct: Murine L1210 Leukemia cells were grown in RPMI 1630 medium; endogenous in cells; host or cells: murine L1210 leukemia cells

[2] = system: murine L1210 leukemia cells; assay type: cell-based; conditions: for IC90: l1210 cells, 45 min, read-out: LD90, murine L1210 leukemia cells (antitumor activity)
[3] = system: murine CFU-C; conditions: for CC90: mouse, bone marrow cfu-c, 0.75 h
[4] = dulbecco's phosphate buffered saline
[5] = read-out: KI, inhibition of initial rate of transport of BCH
[6] = read-out: Ki, competitive inhibition of BCH transport

T1 sequence (Q9Z127 whole entry): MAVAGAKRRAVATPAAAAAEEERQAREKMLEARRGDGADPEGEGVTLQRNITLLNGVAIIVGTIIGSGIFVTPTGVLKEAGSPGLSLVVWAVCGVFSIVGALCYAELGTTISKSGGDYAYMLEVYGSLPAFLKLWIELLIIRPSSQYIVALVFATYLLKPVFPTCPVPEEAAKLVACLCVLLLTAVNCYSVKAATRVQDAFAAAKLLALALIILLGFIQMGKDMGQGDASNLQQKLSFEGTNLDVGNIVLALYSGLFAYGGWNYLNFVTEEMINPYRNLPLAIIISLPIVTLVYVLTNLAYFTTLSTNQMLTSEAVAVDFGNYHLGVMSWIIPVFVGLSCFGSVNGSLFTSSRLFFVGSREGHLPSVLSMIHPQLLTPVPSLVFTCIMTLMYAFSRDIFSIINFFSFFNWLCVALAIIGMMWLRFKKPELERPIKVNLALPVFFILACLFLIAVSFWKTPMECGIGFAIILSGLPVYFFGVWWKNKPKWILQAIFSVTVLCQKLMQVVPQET
T1 sequence (P10852 whole entry partner): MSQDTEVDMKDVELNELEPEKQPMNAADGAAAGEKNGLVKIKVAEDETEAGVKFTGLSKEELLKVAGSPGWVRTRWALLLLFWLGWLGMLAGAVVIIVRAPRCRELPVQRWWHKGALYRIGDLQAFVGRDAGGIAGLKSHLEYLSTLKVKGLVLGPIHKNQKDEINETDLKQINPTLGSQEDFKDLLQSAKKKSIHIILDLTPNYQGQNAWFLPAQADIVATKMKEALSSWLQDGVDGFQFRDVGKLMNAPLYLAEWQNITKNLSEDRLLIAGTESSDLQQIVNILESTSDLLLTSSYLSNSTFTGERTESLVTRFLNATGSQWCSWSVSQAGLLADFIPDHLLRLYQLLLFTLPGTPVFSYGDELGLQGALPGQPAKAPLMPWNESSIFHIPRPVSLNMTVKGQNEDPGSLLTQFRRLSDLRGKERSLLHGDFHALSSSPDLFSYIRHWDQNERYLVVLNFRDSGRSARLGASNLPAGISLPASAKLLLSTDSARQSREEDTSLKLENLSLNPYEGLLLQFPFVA

Compound | KI lower / affinity for System L greater than that of L-phenylalanine mustard [1] [fold] | inhibition of System L (in words) [1] | more effective inhibitor of System L than BCH [1] | more potent than 2-amino-1,2,3,4-tetrahydro-2-naphthoic acid [1] | Ki [1, 5] [µM] | Ki [1, 6] [µM] | antitumor activity (in words) [2] | improvement in therapeutic index [2] | IC90 [2] [µM] | myelosuppressive activity (in words) [3] | CC90 [3] [µM] | half life (t1/2) [4]
NC1(C(=O)O)CCc2ccc(N(CCCl)CCCl)cc2C1 (racemic) [Compound 6, DL-2-Amino-7-bis(2-chloroethyl)amino-1,2,3,4-tetrahydro-2-naphthoic acid] | 500 | extremely potent competitive inhibitor; also recorded: most potent inhibitor of System L | 25-50 fold | approximately 40 fold | ~0.2 | 0.22 | enhanced antitumor activity | 2-2.5 fold and 2 fold | 26.5 | reduced myelosuppressive activity | 23.8 | approximately 40 minutes
NC1(C(=O)O)CCc2c(cccc2N(CCCl)CCCl)C1 (racemic) [Compound 7, DL-2-Amino-5-bis-(2-chloroethyl) amino-1,2,3,4-tetrahydro-2-naphthoic acid] | – | weaker inhibitor | – | – | 15.2 | – | – | – | – | – | – | –
L-phenylalanine mustard [L-PAM, reference compound] | – | – | – | – | – | 112 | – | – | 35 | – | 14 | –
